Test results as given in ChEMBL document CHEMBL1275276, “Analysis of physico-chemical properties of substrates of ABC and MFS multidrug transporters of pathogenic Candida albicans” (2010).
The source made the active and inactive calls. No rule for the calls is given here. Numbered stars: 1 amine (or outer) side, 2 acyl side, 3 side chain; on linkers, the order of the positions; unused ones are H or OH. Bridge positions count the residues as written; N and C are the ends. Square brackets hold non-standard residues; d marks the D form. Peptide text beside a SMILES is read from it. I, II: the chains in the order shown. Actinocin(1to9) = Cc1c2oc3c(C)ccc(C(=O)[*:2])c3nc-2c(C(=O)[*:1])c(N)c1=O; NMeV = CN[C@H](C(=O)O)C(C)C; Sar = CNCC(=O)O

Legend:
[1] = system: Candida albicans; experiment: Binding affinity to Candida albicans CaCdr1p expressed in yeast AD1-8u
[2] = system: Saccharomyces cerevisiae; experiment: Antifungal activity against yeast AD1-8u expressing Candida albicans CaMdr1p by agar disk diffusion assay; format: functional; also: test concentration or dose not given here
[3] = system: Saccharomyces cerevisiae; experiment: Antifungal activity against yeast AD1-8u expressing Candida albicans CaCdr1p by agar disk diffusion assay; format: functional
[4] = system: Candida albicans; experiment: Binding affinity to Candida albicans CaMdr1p expressed in yeast AD1-8u
For IZ in this document: test concentration or dose not given here.

Structure (SMILES)	Activity [1]	inhibition zone (IZ) [2]	inhibition zone (IZ) [3]	Activity [4]
CC/C(=C(\c1ccccc1)c1ccc(OCCN(C)C)cc1)c1ccccc1 [TAMOXIFEN]	Active	0.2 cm	0.7 cm	inactive
CCCCCCCCCCCC[N+](C)(C)CCCS(=O)(=O)[O-]	inactive	0.8 cm	0.2 cm	Active
COc1c(C)c2c(c(O)c1C/C=C(\C)CCC(=O)O)C(=O)OC2 [MYCOPHENOLIC ACID]	inactive	0 cm	0 cm	inactive
O=c1c(O)c(-c2ccc(O)c(O)c2)oc2cc(O)cc(O)c12 [QUERCETIN]	inactive	0 cm	0 cm	inactive
COc1cc([C@@H]2c3cc4c(cc3[C@@H](O[C@@H]3O[C@@H]5CO[C@@H](C)O[C@H]5[C@H](O)[C@H]3O)[C@H]3COC(=O)[C@H]23)OCO4)cc(OC)c1O [ETOPOSIDE]	Active	0.3 cm	1.5 cm	Active
c1c[nH]cn1 [IMIDAZOLE]	inactive	0 cm	0 cm	inactive
COC(=O)c1ccccc1-c1c2ccc(=N)cc-2oc2cc(N)ccc12.Cl [RHODAMINE123]	Active	0.1 cm	1 cm	inactive
Clc1ccc(COC(Cn2ccnc2)c2ccc(Cl)cc2Cl)c(Cl)c1 (stereo unspecified) [MICONAZOLE]	Active	0.2 cm	0.5 cm	inactive
COc1cccc2c1C(=O)c1c(O)c3c(c(O)c1C2=O)C[C@@](O)(C(=O)CO)C[C@@H]3O[C@H]1C[C@H](N)[C@H](O)[C@H](C)O1 [DOXORUBICIN]	Active	0.3 cm	0.4 cm	Active
CN(Cc1cnc2nc(N)nc(N)c2n1)c1ccc(C(=O)N[C@@H](CCC(=O)O)C(=O)O)cc1 [METHOTREXATE]	inactive	0.8 cm	0.1 cm	Active
CC(=O)Nc1c2sscc-2n(C)c1=O [THIOLUTIN]	inactive	0.7 cm	0 cm	Active
CCN(CC)C(=S)SSC(=S)N(CC)CC	Active	0.3 cm	0.4 cm	Active
CON(C)C(=O)Nc1ccc(Br)c(Cl)c1 [CHLORBROMURON]	Active	0.1 cm	0.9 cm	inactive
CO[C@@H]1[C@@H](OC(N)=O)[C@@H](O)[C@H](Oc2ccc3c(O)c(NC(=O)c4ccc(O)c(CC=C(C)C)c4)c(=O)oc3c2C)OC1(C)C [NOVOBIOCIN]	inactive	0 cm	0 cm	inactive
Oc1cccc2cccnc12 [OXYQUINOLINE]	inactive	0 cm	0 cm	inactive
CN[C@H]1C[C@@H](N)[C@H](O)[C@@H](O[C@@H]2O[C@H](CO)[C@H](O)[C@H]3O[C@@]4(O[C@H]23)O[C@H]([C@H](N)CO)[C@H](O)[C@H](O)[C@H]4O)[C@@H]1O	inactive	0 cm	0 cm	inactive
COc1ccc(C[C@H]2NC[C@H](O)[C@H]2OC(C)=O)cc1 [ANISOMYCIN]	Active	0.7 cm	0.9 cm	Active
C[C@@H]1C[C@H]2[C@@H]3CCC4=CC(=O)C=C[C@]4(C)[C@@]3(F)[C@@H](O)C[C@]2(C)[C@@]1(O)C(=O)CO [DEXAMETHASONE]	Active	0 cm	0.9 cm	inactive
C[C@]12CC[C@@H]3c4ccc(OS(=O)(=O)O)cc4CC[C@H]3[C@@H]1CCC2=O [ESTRONE SULFURIC ACID]	inactive	0 cm	0 cm	inactive
O=C1c2c(O)ccc(O)c2C(=O)c2c(NCCNCCO)ccc(NCCNCCO)c21 [MITOXANTRONE]	inactive	0.3 cm	0.2 cm	Active

Structure (SMILES)	Activity [1]	inhibition zone (IZ) [2]	inhibition zone (IZ) [3]	Activity [4]
OCCN1CCN(CCCN2c3ccccc3Sc3ccc(C(F)(F)F)cc32)CC1 [FLUPHENAZINE]	Active	0.2 cm	0.3 cm	inactive
O=P1(N(CCCl)CCCl)NCCCO1 (stereo unspecified) [CYCLOPHOSPHAMIDE ANHYDROUS]	inactive	0 cm	0 cm	inactive
COc1ccc(CCN(C)CCCC(C#N)(c2ccc(OC)c(OC)c2)C(C)C)cc1OC (stereo unspecified)	Active	0 cm	0.9 cm	inactive
CCCCNC(=O)n1c(NC(=O)OC)nc2ccccc21 [BENOMYL]	Active	0.4 cm	0.9 cm	Active
CN(C/C=C/C#CC(C)(C)C)Cc1cccc2ccccc12 [TERBINAFINE]	Active	0 cm	1.2 cm	inactive
CC[C@]1(O)C[C@@H]2CN(CCc3c([nH]c4ccccc34)[C@@](C(=O)OC)(c3cc4c(cc3OC)N(C)[C@H]3[C@@](O)(C(=O)OC)[C@H](OC(C)=O)[C@]5(CC)C=CCN6CC[C@]43[C@@H]65)C2)C1 [VINBLASTINE]	Active	0 cm	0.6 cm	inactive
Clc1ccccc1C(c1ccccc1)(c1ccccc1)n1ccnc1 [CLOTRIMAZOLE]	Active	0 cm	0.7 cm	inactive
OC(Cn1cncn1)(Cn1cncn1)c1ccc(F)cc1F [FLUCONAZOLE]	Active	1.6 cm	2.3 cm	Active
c1ccc(CNc2ncnc3[nH]cnc23)cc1 [6-BENZYLAMINOPURINE]	inactive	0 cm	0 cm	inactive
O=C(N[C@H](CO)[C@H](O)c1ccc([N+](=O)[O-])cc1)C(Cl)Cl [CHLORAMPHENICOL]	Active	0 cm	0.8 cm	inactive
CO[C@H]1/C=C/O[C@@]2(C)Oc3c(C)c(O)c4c(O)c(c(/C=N/N5CCN(C)CC5)c(O)c4c3C2=O)NC(=O)/C(C)=C\C=C\[C@H](C)[C@H](O)[C@@H](C)[C@@H](O)[C@@H](C)[C@H](OC(C)=O)[C@@H]1C [RIFAMPIN]	inactive	0 cm	0 cm	inactive
CC(=O)[C@H]1CC[C@H]2[C@@H]3CCC4=CC(=O)CC[C@]4(C)[C@H]3CC[C@]12C [PROGESTERONE]	inactive	0 cm	0 cm	inactive
C[C@@H]1O[C@@H](O[C@H]2C[C@@H](O)[C@]3(CO)[C@H]4[C@H](O)C[C@]5(C)[C@@H](C6=CC(=O)OC6)CC[C@]5(O)[C@@H]4CC[C@]3(O)C2)[C@H](O)[C@H](O)[C@H]1O [OUABAIN]	inactive	0 cm	0 cm	inactive
COc1ccc2c(c1)c(CC(=O)O)c(C)n2C(=O)c1ccc(Cl)cc1 [INDOMETHACIN]	inactive	0 cm	0 cm	inactive
Cc1c2oc3c(C)ccc(C(=O)N[C@@H]4C(=O)N[C@H](C(C)C)C(=O)N5CCC[C@H]5C(=O)N(C)CC(=O)N(C)[C@@H](C(C)C)C(=O)O[C@@H]4C)c3nc-2c(C(=O)N[C@@H]2C(=O)N[C@H](C(C)C)C(=O)N3CCC[C@H]3C(=O)N(C)CC(=O)N(C)[C@@H](C(C)C)C(=O)O[C@@H]2C)c(N)c1=O [DACTINOMYCIN] (I: T[dV]P[Sar][NMeV] / II: T[dV]P[Sar][NMeV]; ester I:1-I:C, II:1-II:C; linker I:N-II:N via Actinocin(1to9))	inactive	0.3 cm	0.1 cm	Active
CCC[C@@H]1C[C@@H](C(=O)N[C@@H]([C@H]2O[C@H](SC)[C@H](O)[C@@H](O)[C@H]2O)[C@@H](C)O)N(C)C1 [LINCOMYCIN]	inactive	0 cm	0 cm	inactive
C=C[C@H]1CN2CC[C@H]1C[C@@H]2[C@@H](O)c1ccnc2ccc(OC)cc12 [QUINIDINE]	Active	0.8 cm	0.8 cm	Active
CC/N=c1\cc2oc3cc(NCC)c(C)cc3c(-c3ccccc3C(=O)OCC)c-2cc1C.Cl [RHODAMINE 6G HYDROCHLORIDE]	Active	0.2 cm	0.8 cm	inactive
N#CC(C#N)=NNc1cccc(Cl)c1 [CARBONYL CYANIDE M-CHLOROPHENYLHYDRAZONE]	inactive	0 cm	0 cm	inactive
